Biological target: T1, Human thrombin (Homo sapiens, UniProt P00734)
T1 construct: purchased Haematologic Technologies Inc
Assay: thrombin protease inhibition assay, chromogenic substrate S-2238
Assay type: biochemical
Details: 3 nM human thrombin, 125 μM S-2238, 10 min pre-incubation, RT
Description: Compounds described herein can be assayed, by a variety of methods known in the art and described herein, for inhibition of biological activity, e.g., protease activity, of a variety of proteins, e.g., thrombin.
The thrombin activity reported herein (e.g., Table A) was obtained as follows. […] Thrombin was assayed in buffer containing 0.05 M Tris (pH 7.4), 0.015 M NaCl and 0.01% PEG-8000. The final concentration of enzyme used was 3 nM thrombin. […] All assays were performed in 96-well microtiter plates at room temperature (RT). […] Inhibitor IC50 values were determined by adding test compound as ten point, three-fold serial dilutions in buffer solution, as known in the art. The plate was read at 10 minutes after substrate addition. The IC50 was calculated by plotting the percent (%) inhibition against compound concentration and fitting the data to a constrained four parameter sigmoidal curve, as known in the art.

Question: With `CN(C)c1cccc2c(S(=O)(=O)N3CCC(c4nn(C(=O)C(C)(C)CO)c(NCc5ccc(Cl)s5)c4F)CC3)cccc12` [Compound 1, 1-(5-[(5-chlorothiophen-2-yl)methyl]amino-3-(1-[5-(dimethylamino)naphthalen-1-yl]sulfonylpiperidin-4-yl)-4-fluoro-1H-pyrazol-1-yl)-3-hydroxy-2,2-dimethylpropan-1-one] as the compound, how does the IC50 read?
Answer: Its IC50 is under 100 nM.

Question: How did the IC50 turn out when `CC(C)(C)C(=O)n1nc(-c2ccc3c(c2)CCCC3O)c(F)c1NCc1ccc(Cl)s1` (stereo not drawn) [Compound 2, 1-(5-[(5-chlorothiophen-2-yl)methyl]amino-4-fluoro-3-(5-hydroxy-5,6,7,8-tetrahydronaphthalen-2-yl)-1H-pyrazol-1-yl)-2,2-dimethylpropan-1-one] was run?
Answer: Its IC50 is over 1000 nM.

Question: Which IC50 does the source give for `COCC(C)(C)C(=O)n1nc(C2CCOCC2)c(F)c1NCc1ccc(Cl)s1` [Compound 5, 1-(5-[(5-chlorothiophen-2-yl)methyl]amino-4-fluoro-3-(oxan-4-yl)-1H-pyrazol-1-yl)-3-methoxy-2,2-dimethylpropan-1-one] here?
Answer: Its IC50 is under 100 nM.

Question: `COC(C)(C)C(=O)n1nc(C2CCNCC2)c(F)c1NCc1ccc(Cl)s1` [Compound 7, 1-(5-[(5-chlorothiophen-2-yl)methyl]amino-4-fluoro-3-(piperidin-4-yl)-1H-pyrazol-1-yl)-2-methoxy-2-methylpropan-1-one] was tested. Which IC50 did it give?
Answer: The IC50 was under 100 nM.

Question: How did the IC50 turn out when `COCC(C)(C)C(=O)n1nc(C2CCNCC2)c(F)c1NCc1ccc(Cl)s1` [Compound 9, 1-(5-[(5-chlorothiophen-2-yl)methyl]amino-4-fluoro-3-(piperidin-4-yl)-1H-pyrazol-1-yl)-3-methoxy-2,2-dimethylpropan-1-one] was run?
Answer: The IC50 was under 100 nM.

Question: With `CC(C)(C)C(=O)n1nc(-c2ccccc2)c(F)c1NCc1ccc(Cl)s1` [Compound 10, 1-(5-[(5-chlorothiophen-2-yl)methyl]amino-4-fluoro-3-phenyl-1H-pyrazol-1-yl)-2,2-dimethylpropan-1-one] as the compound, how does the IC50 read?
Answer: The IC50 was under 100 nM.

Question: For `CC(C)(O)C(=O)n1nc(-c2ccccc2)c(F)c1NCc1ccc(Cl)s1` [Compound 11, 1-(5-[(5-chlorothiophen-2-yl)methyl]amino-4-fluoro-3-phenyl-1H-pyrazol-1-yl)-2-hydroxy-2-methylpropan-1-one], which IC50 is on record?
Answer: Its IC50 is under 100 nM.

Question: For `COC(C)(C)C(=O)n1nc(-c2ccccc2)c(F)c1NCc1ccc(Cl)s1` [Compound 12, 1-(5-[(5-chlorothiophen-2-yl)methyl]amino-4-fluoro-3-phenyl-1H-pyrazol-1-yl)-2-methoxy-2-methylpropan-1-one], which IC50 is on record?
Answer: Its IC50 is under 100 nM.

Question: With `COCCOCC(C)(C)C(=O)n1nc(-c2ccccc2)c(F)c1NCc1ccc(Cl)s1` [Compound 13, 1-(5-[(5-chlorothiophen-2-yl)methyl]amino-4-fluoro-3-phenyl-1H-pyrazol-1-yl)-3-(2-methoxyethoxy)-2,2-dimethylpropan-1-one] as the compound, how does the IC50 read?
Answer: Its IC50 is under 100 nM.

Question: How did the IC50 turn out when `CC(C)(CO)C(=O)n1nc(-c2ccccc2)c(F)c1NCc1ccc(Cl)s1` [Compound 14, 1-(5-[(5-chlorothiophen-2-yl)methyl]amino-4-fluoro-3-phenyl-1H-pyrazol-1-yl)-3-hydroxy-2,2-dimethylpropan-1-one] was run?
Answer: Its IC50 is under 100 nM.

Question: With `COCC(C)(C)C(=O)n1nc(-c2ccccc2)c(F)c1NCc1ccc(Cl)s1` [Compound 15, 1-(5-[(5-chlorothiophen-2-yl)methyl]amino-4-fluoro-3-phenyl-1H-pyrazol-1-yl)-3-methoxy-2,2-dimethylpropan-1-one] as the compound, how does the IC50 read?
Answer: Its IC50 is under 100 nM.

Question: For `CC(C)(C)C(=O)n1nc(-c2ccc(N3CCCC3=O)cc2)c(F)c1NCc1ccc(Cl)s1` [Compound 16, 1-[4-(5-[(5-chlorothiophen-2-yl)methyl]amino-1-(2,2-dimethylpropanoyl)-4-fluoro-1H-pyrazol-3-yl)phenyl]pyrrolidin-2-one], which IC50 is on record?
Answer: The IC50 was under 100 nM.

Question: Which IC50 does the source give for `O=C1CCCN1c1ccc(-c2nn(C(=O)c3cccc4c3OCCO4)c(NCc3ccc(Cl)s3)c2F)cc1` [Compound 17, 1-[4-(5-[(5-chlorothiophen-2-yl)methyl]amino-1-(2,3-dihydro-1,4-benzodioxine-5-carbonyl)-4-fluoro-1H-pyrazol-3-yl)phenyl]pyrrolidin-2-one] here?
Answer: Its IC50 is under 100 nM.

Question: How did the IC50 turn out when `COc1ccccc1C(=O)n1nc(-c2ccc(C(O)C(F)(F)F)cc2)c(F)c1NCc1ccc(Cl)s1` (stereo not drawn) [Compound 18, 1-[4-(5-[(5-chlorothiophen-2-yl)methyl]amino-4-fluoro-1-(2-methoxybenzoyl)-1H-pyrazol-3-yl)phenyl]-2,2,2-trifluoroethan-1-ol] was run?
Answer: Its IC50 is over 1000 nM.

Question: How did the IC50 turn out when `COc1ccccc1C(=O)n1nc(-c2ccc(N3CCCC3=O)cc2)c(F)c1NCc1ccc(Cl)s1` [Compound 19, 1-[4-(5-[(5-chlorothiophen-2-yl)methyl]amino-4-fluoro-1-(2-methoxybenzoyl)-1H-pyrazol-3-yl)phenyl]pyrrolidin-2-one] was run?
Answer: Its IC50 is under 100 nM.

Question: `O=C1CCCN1c1ccc(-c2nn(C(=O)c3ccoc3)c(NCc3ccc(Cl)s3)c2F)cc1` [Compound 20, 1-[4-(5-[(5-chlorothiophen-2-yl)methyl]amino-4-fluoro-1-(furan-3-carbonyl)-1H-pyrazol-3-yl)phenyl]pyrrolidin-2-one] was tested. Which IC50 did it give?
Answer: The IC50 was over 1000 nM.

Question: How did the IC50 turn out when `O=C(N1CCC(c2n[nH]c(NCc3ccc(Cl)s3)c2F)CC1)C1(O)CC1` [Compound 21, 1-[4-(5-[(5-chlorothiophen-2-yl)methyl]amino-4-fluoro-1H-pyrazol-3-yl)piperidine-1-carbonyl]cyclopropan-1-ol] was run?
Answer: The IC50 was 100 to 1000 nM.

Question: For `CC(C)(C)C(=O)n1nc(-c2ccccn2)c(F)c1NCc1ccccc1` [Compound 22, 1-[5-(benzylamino)-4-fluoro-3-(pyridin-2-yl)-1H-pyrazol-1-yl]-2,2-dimethylpropan-1-one], which IC50 is on record?
Answer: The IC50 was under 100 nM.

Question: With `CC(C)(C)C(=O)n1nc(-c2ccccc2)c(F)c1NCc1ccccc1` [Compound 23, 1-[5-(benzylamino)-4-fluoro-3-phenyl-1H-pyrazol-1-yl]-2,2-dimethylpropan-1-one] as the compound, how does the IC50 read?
Answer: Its IC50 is under 100 nM.

Question: For `O=C(c1ccccc1)n1nc(C2CCOCC2)c(F)c1NCc1ccc(Cl)s1` [Compound 24, 1-benzoyl-N-[(5-chlorothiophen-2-yl)methyl]-4-fluoro-3-(oxan-4-yl)-1H-pyrazol-5-amine], which IC50 is on record?
Answer: Its IC50 is under 100 nM.

Question: Which IC50 does the source give for `O=C(c1ccccc1)n1nc(NCc2ccc(Cl)s2)c(F)c1C1CCOCC1` [Compound 25, 1-benzoyl-N-[(5-chlorothiophen-2-yl)methyl]-4-fluoro-5-(oxan-4-yl)-1H-pyrazol-3-amine] here?
Answer: The IC50 was over 1000 nM.

Question: For `CN(C)c1cccc2c(S(=O)(=O)Oc3ccccc3C(=O)n3nc(-c4ccccc4)c(F)c3NCc3ccc(Cl)s3)cccc12` [Compound 26, 2-(5-[(5-chlorothiophen-2-yl)methyl]amino-4-fluoro-3-phenyl-1H-pyrazole-1-carbonyl)phenyl 5-(dimethylamino)naphthalene-1-sulfonate], which IC50 is on record?
Answer: The IC50 was 100 to 1000 nM.

Question: With `CN(C)c1cccc2c(S(=O)(=O)Oc3ccc(C(=O)n4nc(-c5ccccc5)c(F)c4NCc4ccc(Cl)s4)cc3)cccc12` [Compound 27, 4-(5-[(5-chlorothiophen-2-yl)methyl]amino-4-fluoro-3-phenyl-1H-pyrazole-1-carbonyl)phenyl 5-(dimethylamino)naphthalene-1-sulfonate] as the compound, how does the IC50 read?
Answer: Its IC50 is over 1000 nM.

Question: With `CC(C)(C)C(=O)n1nc(-c2ccc(N3CCOCC3=O)cc2)c(F)c1NCc1ccc(Cl)s1` [Compound 28, 4-[4-(5-[(5-chlorothiophen-2-yl)methyl]amino-1-(2,2-dimethylpropanoyl)-4-fluoro-1H-pyrazol-3-yl)phenyl]morpholin-3-one] as the compound, how does the IC50 read?
Answer: Its IC50 is under 100 nM.

From patent US9951025B2, “Halogenopyrazoles as inhibitors of thrombin” (VERSEON CORPORATION, priority 2013, dated 2018)
